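Test compounds were applied to cells in 96-well plates for 48 hours at 5 doses. TGI: total growth inhibition.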
How the values were obtained:
Test in all cases: inhibition of tumour cell growth, NCI panel, 48 h
[1] = system: 786-0 renal
[2] = system: A498 renal
[3] = system: ACHN renal
[4] = system: CAKI-1 renal
[5] = system: CCRF-CEM leukemia
[6] = system: DU-145 prostate
[7] = system: EKVX NSCLC
[8] = system: HCC-2998 colon
[9] = system: HCT-116 colon
[10] = system: HCT-15 colon
[11] = system: HL-60(TB) leukemia
[12] = system: HOP-62 NSCLC
[13] = system: HOP-92 NSCLC
[14] = system: HS 578T breast
[15] = system: HT29 colon
[16] = system: IGROV1 ovarian
[17] = system: K-562 leukemia
[18] = system: KM12 colon
[19] = system: LOX IMVI melanoma
[20] = system: M14 melanoma
[21] = system: MCF7 breast
[22] = system: MDA-MB-231 breast
[23] = system: MDA-MB-435
[24] = system: MDA-N
[25] = system: MOLT-4 leukemia
[26] = system: NCI-H226 lung
[27] = system: NCI-H23 lung
[28] = system: NCI-H460 lung
[29] = system: NCI-H522 lung
[30] = system: NCI/ADR-RES ovarian
[31] = system: OVCAR-3 ovarian
[32] = system: OVCAR-4 ovarian
[33] = system: OVCAR-5 ovarian
[34] = system: OVCAR-8 ovarian
[35] = system: PC-3 prostate
[36] = system: RPMI-8226 leukemia
[37] = system: RXF 393 renal
[38] = system: SF-268 CNS
[39] = system: SF-295 CNS
[40] = system: SF-539 CNS
[41] = system: SK-MEL-2 melanoma
[42] = system: SK-MEL-28 melanoma
[43] = system: SK-MEL-5 melanoma
[44] = system: SK-OV-3 ovarian
[45] = system: SNB-75 CNS
[46] = system: SR leukemia
[47] = system: SW-620 colon
[48] = system: T-47D breast
[49] = system: TK-10 renal
[50] = system: U251 CNS
[51] = system: UACC-257 melanoma
[52] = system: UO-31 renal

Structure (SMILES): Cc1cc2c(cc1Cl)SC(c1ccccc1)C(=O)NS2(=O)=O (configuration not stated)
- TGI [1]: > 100 µM
- TGI [2]: 75.5 µM
- TGI [3]: > 100 µM
- TGI [4]: > 100 µM
- TGI [5]: > 100 µM
- TGI [6]: > 100 µM
- TGI [7]: > 100 µM
- TGI [8]: 70.8 µM
- TGI [9]: 45.6 µM
- TGI [10]: 64 µM
- TGI [11]: 58.9 µM
- TGI [12]: > 100 µM
- TGI [13]: > 100 µM
- TGI [14]: 59.4 µM
- TGI [15]: > 100 µM
- TGI [16]: > 100 µM
- TGI [17]: > 100 µM
- TGI [18]: > 100 µM
- TGI [19]: > 100 µM
- TGI [20]: > 100 µM
- TGI [21]: > 100 µM
- TGI [22]: > 100 µM
- TGI [23]: > 100 µM
- TGI [24]: > 100 µM
- TGI [25]: 60.7 µM
- TGI [26]: > 100 µM
- TGI [27]: 56.2 µM
- TGI [28]: 86.1 µM
- TGI [29]: 59.7 µM
- TGI [30]: 91.9 µM
- TGI [31]: 53.4 µM
- TGI [32]: > 100 µM
- TGI [33]: > 100 µM
- TGI [34]: > 100 µM
- TGI [35]: 70.7 µM
- TGI [36]: > 100 µM
- TGI [37]: > 100 µM
- TGI [38]: > 100 µM
- TGI [39]: 95.6 µM
- TGI [40]: 73.3 µM
- TGI [41]: 32.9 µM
- TGI [42]: > 100 µM
- TGI [43]: 48.8 µM
- TGI [44]: > 100 µM
- TGI [45]: 87 µM
- TGI [46]: 73.8 µM
- TGI [47]: > 100 µM
- TGI [48]: 84.6 µM
- TGI [49]: > 100 µM
- TGI [50]: 60.5 µM
- TGI [51]: 88.5 µM
- TGI [52]: 75.1 µM
